Values quoted from earlier work in US20210214291A1, “Rapid Thermal Isomerization of Lycopene” (priority 2020, published 2021).
Like-named read-outs stand apart in the source and are kept apart here.

Columns and labels:
[1] = test system: super oxide dismutase (SOD) activity; details: for increase in SOD activity: patients
[2] = organic solvents, 24 hrs

| Structure (SMILES) | increase in SOD activity ([1]; daily 6 mg for 8 wks) | increase in SOD activity ([1]; daily 15 mg for 8 wks) | reduction in C-reactive protein (CRP) levels ([1]; high dose group (15 mg daily, 8 wks)) | isomerization ratio to the cis-isomer ([2]; 4 C) | isomerization ratio to the cis-isomer ([2]; 50 C) |
| --- | --- | --- | --- | --- | --- |
| CC(C)=CCC/C(C)=C/C=C/C(C)=C/C=C/C(C)=C/C=C/C=C(C)/C=C/C=C(C)/C=C/C=C(\C)CCC=C(C)C [lycopene] | 1.73 units per milliliter | 2.37 units per milliliter | 57% |  |  |
| CC(C)=CCC/C(C)=C/C=C/C(C)=C/C=C/C(C)=C/C=C/C=C(C)/C=C/C=C(C)/C=C/C=C(\C)CCC=C(C)C [trans-lycopene] |  |  |  | 11.4% | 77.8% |
